Test results published in patent publication US5576318A, “Benzimidazolone derivatives” (Boehringer Ingelheim Italia S.p.A., priority 1991, dated 1996).

Legend:
5-HT2 receptor = target: T1, 5-HT2 receptor (Rattus norvegicus, UniProt P14842); experiment: 5-HT2 receptor binding ([3H]-Ketanserine displacement, rat cerebral cortices); set-up: species or system rat (male Sprague Dawley); conditions: 37° C. for 10 min, read-out: AFFINITY FOR 5-HT2 RECEPTORS Ki
T1 construct: Cerebral cortices were homogenized in 10 volumes of ice cold 0.32M sucrose; from tissue; host or cells: cerebral cortex of male Sprague Dawley rats, membranes
T1 sequence (P14842 whole entry): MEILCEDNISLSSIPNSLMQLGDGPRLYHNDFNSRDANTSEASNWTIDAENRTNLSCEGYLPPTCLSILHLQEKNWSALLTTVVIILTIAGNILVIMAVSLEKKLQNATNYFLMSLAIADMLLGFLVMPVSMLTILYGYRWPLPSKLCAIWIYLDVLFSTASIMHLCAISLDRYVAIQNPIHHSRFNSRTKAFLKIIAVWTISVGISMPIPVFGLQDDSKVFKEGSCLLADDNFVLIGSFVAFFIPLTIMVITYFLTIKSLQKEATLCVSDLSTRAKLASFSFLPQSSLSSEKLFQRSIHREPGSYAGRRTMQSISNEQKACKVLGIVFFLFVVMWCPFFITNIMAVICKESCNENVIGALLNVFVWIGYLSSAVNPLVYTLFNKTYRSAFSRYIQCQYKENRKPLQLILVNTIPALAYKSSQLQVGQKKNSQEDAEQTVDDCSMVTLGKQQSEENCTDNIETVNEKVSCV
Description: Receptor binding studies on 5-HT1A and 5-HT2 receptors were carried out to determine the affinity of the test compounds.
Rats (male Sprague Dawley, 200-250 g) were used. Cerebral cortices were homogenized in 10 volumes of ice cold 0.32M sucrose. After the centrifugation of the homogenate (1,000×g for 10 min) the supernatant was then recentrifuged at 48,000×g for 15 min. The resulting pellet was resuspended in 10 volumes of 50 mM TRIS buffer (pH 7.4), incubated at 37° C. for 10 min and recentrifuged at 48,000×g for 15 min. The residue was then resuspended in 10 volumes of 50 mM TRIS buffer (pH 7.4).
The tissue was diluted 1:100 (w:v) in 50 mM TRIS buffer (pH 7.4) to have a final protein concentration of about 200 μg/mL.
Displacement experiments were performed by incubating the homogenate (980 μL) in the presence of [^3 H]-Ketanserine (0.5-1.0 nM) (10 μL) and of different concentrations of the test compounds dissolved in the assay buffer (10 μL), at 37° C. for 10 min (final volume: 1 mL).
Non specific binding was determined in the presence of 100 μM Methysergide (10 μL). The separation of [^3 H]-Ketanserine free from that bound to the receptor was carried by the filtration technique (GF/B filters, Whatman). The radioactivity present was counted by liquid scintillation spectrometry.
(§1) The affinity values (Ki) for the compounds were obtained by non linear least squares regression analysis on the basis of a one binding site model. These values were corrected on the basis of the radioligand occupancy on the receptors according to the equation: Ki=IC50 /(1+[C]/KD), where [C] and KD represent the concentration and the dissociation constant, respectively, of the radioligand used ([^3 H]-Ketanserine).
The results of some of the compounds of the present invention on the affinity to the 5-HT1A and 5-HT2 receptors are reported in Table 1.

5-HT1A receptors = experiment: Behavioral syndrome: induction of 5-HT1A related syndrome; format: in vivo, rat; set-up: key: sum of symptom scores per rat within 50 min; conditions: within 50 min, mean ± s.e. from 4 rats
Description: The test consists of administering the compound and registering the presence of the above mentioned symptoms within 50 min giving them a score. The results are expressed as the sum of said scores for each rat (Tab. 2).
Values represent mean± s.e. from 4 rats

5-HT1A receptor = target: T2, 5-HT1A receptor (Rattus norvegicus, UniProt P19327); experiment: 5-HT1A receptor binding ([3H]-8-OH-DPAT displacement, rat hippocampi); set-up: species or system rat (male Sprague Dawley); conditions: 30° C. for 15 min, read-out: AFFINITY FOR 5-HT1A RECEPTORS Ki
T2 construct: The Hippocampi of these animals were homogenized in 10 volumes of ice cold TRIS buffer; from tissue; host or cells: hippocampus of male Sprague Dawley rats, homogenate
T2 sequence (P19327 1-422): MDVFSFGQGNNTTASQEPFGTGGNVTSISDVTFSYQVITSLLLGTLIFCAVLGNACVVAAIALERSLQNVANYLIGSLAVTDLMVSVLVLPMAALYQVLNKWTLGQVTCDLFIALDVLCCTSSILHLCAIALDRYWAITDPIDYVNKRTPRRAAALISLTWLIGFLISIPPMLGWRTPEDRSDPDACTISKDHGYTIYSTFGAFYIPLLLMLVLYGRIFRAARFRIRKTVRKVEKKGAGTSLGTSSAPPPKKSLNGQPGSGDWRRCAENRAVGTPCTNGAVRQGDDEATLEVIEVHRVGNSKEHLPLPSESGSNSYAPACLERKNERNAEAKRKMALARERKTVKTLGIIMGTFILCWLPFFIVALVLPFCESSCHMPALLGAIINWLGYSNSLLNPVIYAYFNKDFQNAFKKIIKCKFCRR
Description: Rats (male Sprague Dawley, 200-250 g) were used. The Hippocampi of these animals were homogenized in 10 volumes of ice cold TRIS buffer (pH 7.4). The homogenate was diluted 1:400 (w:v) in the same buffer to have a final protein concentration of about 200 μg/mL, filtered and incubated at 37° C. for 10 min, before use.
Displacement experiments were performed by incubating the homogenate (980 μL) in the presence of [^3 H]-80H-DPAT (1.0-1,5 nM) (10 μL) and of different concentrations of the test compounds dissolved in the test buffer (10 μL), at 30° C. for 15 min (final volume: 1 mL).
Non specific binding was determined in the presence of 100 μM 5-HT (10 μL). The separation of [^3 H]-8-OH-DPAT, free from that bound to the receptor, was carried out by the filtration technique (GF/B filters, Whatman). The radioactivity present was counted by liquid scintillation spectrometry.
as §1, with “by a” for “by”, “The” for “These”, “/(1+[C]/KD),where” for “/(1+[C]/KD), where”, “H]-8-OH-DPAT).” for “H]-Ketanserine).”

5-HT2 receptors = experiment: Antagonism of quipazine-induced head twitches; format: in vivo; conditions: ip; head twitches scored within 20 minutes in quipazine-treated animals

SMILES	Ki (5-HT2 receptor) [µM]	INDUCTION OF 5-HT1A RELATED SYNDROME Total score (5-HT1A receptors; dose 32 mg/kg/ip)	Ki (5-HT1A receptor) [µM]	DOSE OF COMPOUND (ID50) WHICH ANTAGONIZES THE SYNDROME INDUCED BY QUIPAZINE (5-HT2 receptors) [μg/kg/ip]	INDUCTION OF 5-HT1A RELATED SYNDROME Total score (5-HT1A receptors; dose 8 mg/kg/ip)	INDUCTION OF 5-HT1A RELATED SYNDROME Total score (5-HT1A receptors; dose 16 mg/kg/ip)
CCn1c(=O)n(CCCCCCN2CCN(c3cccc(C(F)(F)F)c3)CC2)c2ccccc21 [Compound 13, 1-[6-(4-(3-trifluoromethyl-phenyl)piperazin-1-yl)hexyl]-3-ethyl-2,3-dihydro-1H-benzimidazol-2-one]	0.015	3.8 ± 1.3	0.015	8200	–	–
Cn1c(=O)n(CCCCN2CCN(c3cccc(Cl)c3)CC2)c2ccccc21 [Compound 17, 1-[4-(4-(3-chlorophenyl)piperazin-1-yl)butyl]-3-methyl-2,3-dihydro-1H-benzimidazol-2-one]	0.008	10.3 ± 2.9	0.03	178	1.5 ± 0.7	–
COc1ccc2[nH]c(=O)n(CCCCN3CCN(c4ccccc4OC)CC3)c2c1 [Compound 24, 6-methoxy-1-[4-(4-(2-methoxyphenyl)piperazin-1-yl)butyl]-2,3-dihydro-1H-benzimidazol-2-one]	0.065	–	0.012	102	4.3 ± 1.1	–
O=c1[nH]c2ccccc2n1CCCCN1CCN(c2cccc3ccccc23)CC1 [Compound 30, 1-[4-(4-(1-naphtyl)piperazin-1-yl)butyl]-2,3-dihydro-1H-benzimidazol-2-one]	0.007	–	0.01	–	–	–
O=c1[nH]c2ccccc2n1CCN1CCN(c2cccc(C(F)(F)F)c2)CC1 [Compound 3, 1-[2-(4-(3-trifluoromethyl-phenyl)piperazin-1-yl)ethyl]-2,3-dihydro-1H-benzimidazol-2-one]	0.133	–	0.05	498	–	5.3 ± 1.2
CC(C)n1c(=O)n(CCCCN2CCN(c3cccc(C(F)(F)F)c3)CC2)c2ccccc21 [Compound 15, 1-[4-(4-(3-trifluoromethyl-phenyl)piperazin-1-yl)butyl]-3-isopropyl-2,3-dihydro-1H-benzimidazol-2-one]	0.02	–	0.08	–	–	–
COc1ccccc1N1CCN(CCCn2c(=O)[nH]c3ccccc32)CC1 [Compound 10, 1-[3-(4-(2-methoxyphenyl)piperazin-1-yl)propyl]-2,3-dihydro-1H-benzimidazol-2-one]	0.03	–	0.005	3300	3.0 ± 0.4	–
O=c1[nH]c2ccccc2n1CCCCN1CCN(c2cccc(C(F)(F)F)c2)CC1 [Compound 8, 1-[4-(4-(3-trifluoromethyl-phenyl)piperazin-1-yl)butyl]-2,3-dihydro-1H -benzimidazol-2-one]	0.0095	–	0.053	385	3.0 ± 2.7	–
O=c1[nH]c2ccccc2n1CCCN1CCN(c2cccc(C(F)(F)F)c2)CC1 [Compound 18, 1-[3-(4-(3-trifluoromethyl-phenyl)piperazin-1-yl)propyl]-2,3-dihydro-1H-benzimidazol-2-one]	0.004	12.0 ± 3.2	0.025	170	–	3.8 ± 2.2
Cn1c(=O)n(CCCCN2CCN(c3cccc(C(F)(F)F)c3)CC2)c2ccccc21 [Compound 9, 1-[4-(4-(3-trifluoromethyl-phenyl)piperazin-1-yl)butyl]-3-methyl-2,3-dihydro-1H-benzimidazol-2-one]	0.014	–	0.023	1720	2.0 ± 0.6	–
O=c1[nH]c2ccccc2n1CCCCN1CCN(c2cccc(Cl)c2)CC1 [Compound 4, 1-[4-(4-(3-chlorophenyl)piperazin-1-yl)butyl]-2,3-dihydro-1H-benzimidazol-2-one]	0.0014	–	0.074	250	0.8 ± 0.5	3.3 ± 1.0
COc1ccc2[nH]c(=O)n(CCCCN3CCN(c4cccc(C(F)(F)F)c4)CC3)c2c1 [Compound 25, 6-methoxy-1-[4-(4-(3-trifluoromethyl-phenyl)piperazin-1-yl)butyl]-2,3-dihydro-1H-benzimidazol-2-one]	0.025	–	0.1	1420	2.0 ± 1.2	–
COc1ccccc1N1CCN(CCCCn2c(=O)[nH]c3ccccc32)CC1 [Compound 1, 1-[4-(4-(2-methoxy-phenyl)piperazin-1-yl)butyl]-2,3-dihydro-1H-benzimidazol-2-one]	0.036	–	0.013	720	7.3 ± 0.9	–
